In patent publication US9512116B2, “Compounds that modulate intracellular calcium” (CALCIMEDICA, INC., priority 2012, dated 2016):
Where two headings read alike, the source gives them in different places.

Tests used:
Orai1/STIM1 = molecular target: T1, Orai1/STIM1 (Homo sapiens, UniProt Q96D31); test: Fluorescence-based assay of store-operated calcium entry in Orai1/STIM1 stable cells; type: cell-based; settings: HEK-293 cells stably expressing human STIM1 and Orai1, Peak-Basal signal, read-out: Orail/STIM1 (IC50, μmol)
T1 construct: expressed in transfected cells; host or cells: HEK-293
Excerpt: Fluorescence-based assays are used for screening the compounds described herein, such as compounds of Formulas (I), (II), (III), (IV) or (V) which modulate intracellular calcium.
A. Fluorescence-Based Assay of Store-Operated Calcium Entry in Orai1/STIM1 Stable Cells.
Cells stably expressing recombinant human STIM1 and Orai1 are generated by transfecting a human Orai1 expression plasmid (pcDNA3.1-Orai1-cmyc) into HEK-293 cells stably overexpressing human STIM1 (Roos et al. 2005 JCB 169(3): 435-445). Colonies of cells stably expressing both STIM1 and Orai1 proteins are selected and then subcloned by limiting dilution. Cells were cultured at 37° C./6% CO2 in complete medium with 10% FBS and appropriate selection markers.
The day prior to performing the assay Orai1/STIM1 stable cells are plated in 50 μL of complete medium at 90-95% confluence in a 384 well plate. Cells are grown at 37° C./6% CO2 overnight. On the day of the assay, 1.5 μM fluo-4-AM (Invitrogen) in complete medium is added to the cells, which are then incubated for 1 hour at RT. Cells are washed once in Ca^2+-free HBSS (Hank's buffered saline solution) and 35 μl of Ca^2+-free HBSS is added to each well. Test compounds are added to wells in a 10 μL Ca^2+-free HBSS solution, prepared at 4.5× the desired final concentration, and incubated for 30 minutes at RT. The initial baseline fluorescence signal is then measured with a FLIPR^384 (Molecular Devices) plate reader. Calcium entry is initiated by adding 5 μl of 10×CaCl2 (10 mM) in HBSS, and changes in cellular fluorescence are measured with the FLIPR^384 plate reader. In each well, the magnitude of the fluorescence signal as a result of calcium entry into the cell is determined by calculating the difference between the peak fluorescence signal measured after calcium addition and the initial baseline fluorescence signal (designated Peak-Basal). IC50 values are typically calculated as the concentration that inhibited 50% of the Peak-Basal signal.

RBL-2H3 cells = test: Fluorescence-based assay of store-operated calcium entry in RBL-2H3 cells; type: cell-based; settings: Rattus norvegicus, thapsigargin, Upslope, read-out: RBL-2H3 (IC50, μmol)
Method: B. Fluorescence-Based Assay of Store-Operated Calcium Entry in RBL-2H3 Cells.
RBL-2H3 cells are obtained from ATCC and maintained in complete medium with 10% FBS at 37° C./6% CO2.
The day prior to performing the assay, RBL-2H3 cells are plated in 50 μl of complete medium in a 384 well plate. Cells are grown at 37° C./6% CO2 overnight and grow to 50-60% confluence by the next day. On the assay day, 1.5 μM Fluo-4-AM dye (Invitrogen) in complete medium is added and incubated for 1 hour at RT. Cells are washed twice in Ca^2+-free HBSS buffer and 35 μL Ca^2+-free HBSS buffer is added to each well. 10 μL of a test compound prepared in a Ca^2+-free HBSS solution at 4.5× of the desired concentration is added to a well and incubated for 5 minutes at RT. 10 μL of thapsigargin prepared in a Ca^2+-free HBSS solution at 5.5× of the desired concentration (5.5 uM) is added to each well and incubated for an additional 25 minutes. The initial baseline fluorescence signal is measured with a FLIPR^384 (Molecular Devices) plate reader. 5 μL of 12× calcium in HBSS (12 mM) is added and changes in cellular fluorescence are measured with the FLIPR^384 plate reader. In each well, the change in the fluorescent signal as a function of time due to calcium entry into the cell is determined by calculating the difference between the fluorescent signal measured 7 seconds after calcium addition and the initial baseline fluorescence signal at time zero (t=0). This parameter is designated Upslope. The IC50 value is calculated as the concentration at which 50% of the Upslope is inhibited.

T1 sequence (Q96D31 whole entry): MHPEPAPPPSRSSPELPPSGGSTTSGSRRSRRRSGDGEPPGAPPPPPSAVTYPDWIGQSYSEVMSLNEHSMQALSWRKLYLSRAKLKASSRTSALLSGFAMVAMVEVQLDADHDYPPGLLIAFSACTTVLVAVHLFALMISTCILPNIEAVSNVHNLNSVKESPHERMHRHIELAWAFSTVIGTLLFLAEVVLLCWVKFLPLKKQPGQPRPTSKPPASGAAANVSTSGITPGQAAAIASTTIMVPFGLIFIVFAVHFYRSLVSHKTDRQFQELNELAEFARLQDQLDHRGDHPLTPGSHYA

Row | Structure (SMILES) | IC50 (Orai1/STIM1; Table IV) | IC50 (Orai1/STIM1; Table III) | other results
1 | Cn1nc(-c2nccs2)cc1-c1ccc(NC(=O)c2c(F)cccc2F)s1 [Compound 6, (2,6-difluorophenyl)-N-[5-[1-methyl-3-(1,3-thiazol-2-yl)pyrazol-5-yl](2-thienyl)]carboxamide] | < 600 nM | – | –
2 | Cn1nc(-c2nccs2)cc1-c1ccc(NC(=O)c2ccc(F)cc2F)s1 [Compound 7, (2,4-difluorophenyl)-N-[5-[1-methyl-3-(1,3-thiazol-2-yl)pyrazol-5-yl](2-thienyl)]carboxamide] | < 600 nM | – | –
3 | Cn1nc(-c2nccs2)cc1-c1ccc(NC(=O)c2c(F)cc(F)cc2F)s1 [Compound 10, (2,4,6-trifluorophenyl)-N-[5-[1-methyl-3-(1,3-thiazol-2-yl)pyrazol-5-yl](2-thienyl)]carboxamide] | < 600 nM | – | –
4 | Cc1oc(C(F)(F)F)nc1-c1ccc(NC(=O)c2c(F)cccc2F)nc1 [Compound 14, 2,6-difluoro-N-(5-(5-methyl-2-(trifluoromethyl)oxazol-4-yl)pyridin-2-yl)benzamide] | – | < 600 nM | –
5 | CCn1nc(-c2nccs2)cc1-c1ccc(NC(=O)c2c(F)cccc2F)s1 [Compound 15] | 600 to 1200 nM | – | –
6 | Cc1ccccc1C(=O)Nc1ccc(-c2nc(C(F)(F)F)oc2C)cn1 [Compound 15] | – | < 600 nM | –
7 | CCn1nc(-c2nccs2)cc1-c1ccc(NC(=O)c2c(F)cc(F)cc2F)s1 [Compound 16] | 600 to 1200 nM | – | –
8 | Cc1oc(C(F)(F)F)nc1-c1ccc(NC(=O)c2ccccc2F)nc1 [Compound 16] | – | < 600 nM | –
9 | Cc1oc(C(F)(F)F)nc1-c1ccc(NC(=O)c2c(F)cncc2F)nc1 [Compound 17, 3,5-difluoro-N-(5-(5-methyl-2-(trifluoromethyl)oxazol-4-yl)pyridin-2-yl)isonicotinamide] | – | < 600 nM | –
10 | Cc1oc(C(F)(F)F)nc1-c1ccc(NC(=O)c2cccc(F)c2C)nc1 [Compound 19, 3-fluoro-2-methyl-N-(5-(5-methyl-2-(trifluoromethyl)oxazol-4-yl)pyridin-2-yl)benzamide] | – | < 600 nM | –
11 | Cn1nc(-c2ccccc2F)cc1-c1ccc(NC(=O)c2c(F)cc(F)cc2F)s1 [Compound 20] | < 600 nM | – | IC50 (RBL-2H3 cells; Table IV): < 600 nM

The next lines start with results.

Row | IC50 (Orai1/STIM1; Table IV) | IC50 (Orai1/STIM1; Table III) | Structure (SMILES) | other results
12 | – | < 600 nM | Cc1cccc(F)c1C(=O)Nc1ccc(-c2nc(C(F)(F)F)oc2C)cn1 [Compound 21] | IC50 (RBL-2H3 cells; Table III): < 600 nM
13 | 600 to 1200 nM | – | Cn1nc(-c2ccccc2F)cc1-c1ccc(NC(=O)c2c(F)ccc(F)c2F)s1 [Compound 21] | IC50 (RBL-2H3 cells; Table IV): 600 to 1200 nM
14 | < 600 nM | – | Cn1nc(-c2ccccc2F)cc1-c1ccc(NC(=O)c2c(F)cccc2F)s1 [Compound 22] | IC50 (RBL-2H3 cells; Table IV): < 600 nM
15 | – | < 600 nM | CCc1oc(C(F)(F)F)nc1-c1ccc(NC(=O)c2ccccc2F)nc1 [Compound 24, N-(5-(5-ethyl-2-(trifluoromethyl)oxazol-4-yl)pyridin-2-yl)-2-fluorobenzamide] | –
16 | – | < 600 nM | CCc1oc(C(F)(F)F)nc1-c1ccc(NC(=O)c2c(F)cccc2F)nc1 [Compound 25, N-(5-(5-ethyl-2-(trifluoromethyl)oxazol-4-yl)pyridin-2-yl)-2,6-difluorobenzamide] | –
17 | 600 to 1200 nM | – | Cn1nc(-c2ccccn2)cc1-c1ccc(NC(=O)c2c(F)cc(F)cc2F)s1 [Compound 27, 2,4,6-trifluoro-N-(5-(1-methyl-3-(pyridin-2-yl)-1H-pyrazol-5-yl)thiophen-2-yl)benzamide] | –
18 | < 600 nM | – | Cn1nc(-c2ccccn2)cc1-c1ccc(NC(=O)c2c(F)cccc2F)s1 [Compound 28, 2,6-difluoro-N-(5-(1-methyl-3-(pyridin-2-yl)-1H-pyrazol-5-yl)thiophen-2-yl)benzamide] | –
